Data taken from publication PMC10755729, “A Multiplexing Activity-Based Protein-Profiling Platform for Dissection of a Native Bacterial Xyloglucan-Degrading System” (ACS Central Science, 2023).

Experiments:
CjXyl39A; Xyl39A = target: T1, CjXyl39A; Xyl39A (Cellvibrio japonicus, UniProt B3PD50); test: fluorogenic activity assay on 4MU glycosides; assay type: biochemical; settings: recombinant enzyme
T1 construct: recombinant, produced in E. coli (native in the pull-down)
T1 sequence (B3PD50 24-521): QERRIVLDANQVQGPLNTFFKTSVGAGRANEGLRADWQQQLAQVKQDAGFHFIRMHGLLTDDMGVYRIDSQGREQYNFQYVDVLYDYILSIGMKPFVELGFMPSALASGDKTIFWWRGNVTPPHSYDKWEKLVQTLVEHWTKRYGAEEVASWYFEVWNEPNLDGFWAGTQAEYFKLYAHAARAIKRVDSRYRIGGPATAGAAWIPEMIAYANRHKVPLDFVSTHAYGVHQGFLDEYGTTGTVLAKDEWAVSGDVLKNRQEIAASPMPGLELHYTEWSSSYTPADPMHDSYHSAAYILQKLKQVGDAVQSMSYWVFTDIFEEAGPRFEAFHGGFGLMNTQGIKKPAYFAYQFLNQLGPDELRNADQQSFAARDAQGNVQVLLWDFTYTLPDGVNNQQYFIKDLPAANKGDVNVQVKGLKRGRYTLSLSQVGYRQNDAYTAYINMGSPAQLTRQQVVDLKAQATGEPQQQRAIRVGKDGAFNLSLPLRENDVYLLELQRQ

CjCel5B = target: T2, CjCel5B (Cellvibrio japonicus, UniProt B3PCS3); test: fluorogenic hydrolysis kinetics; assay type: biochemical; settings: 4MU release
T2 construct: gene cel5B; recombinant, produced in E. coli; native protein has N-terminal catalytic domain, serine-rich linker and C-terminal domain; borders of construct only in supplement
T2 sequence (B3PCS3 38-570): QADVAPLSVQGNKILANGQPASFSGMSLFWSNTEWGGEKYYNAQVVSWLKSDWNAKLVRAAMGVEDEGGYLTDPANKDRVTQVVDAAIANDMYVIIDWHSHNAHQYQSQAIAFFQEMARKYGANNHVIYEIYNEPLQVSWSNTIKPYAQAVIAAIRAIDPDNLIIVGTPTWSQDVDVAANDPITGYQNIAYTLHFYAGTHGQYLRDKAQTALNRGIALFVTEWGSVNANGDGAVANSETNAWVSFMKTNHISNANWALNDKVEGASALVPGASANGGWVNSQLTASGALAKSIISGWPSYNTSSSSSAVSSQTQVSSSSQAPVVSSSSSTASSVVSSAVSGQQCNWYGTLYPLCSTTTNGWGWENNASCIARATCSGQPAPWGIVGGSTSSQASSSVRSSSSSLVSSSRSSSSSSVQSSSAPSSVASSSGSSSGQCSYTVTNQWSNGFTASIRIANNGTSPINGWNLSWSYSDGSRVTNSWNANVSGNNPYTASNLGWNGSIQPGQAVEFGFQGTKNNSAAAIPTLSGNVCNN

Compound	activity (CjXyl39A; Xyl39A)	hydrolysis kinetics (CjCel5B)
Cc1cc(=O)oc2cc(O[C@@H]3OC[C@@H](O)[C@H](O)[C@H]3O)ccc12 [4-methylumbelliferyl (4MU) glycoside of β-D-xylose]	showed specific recognition of β-D-xylose over other glycosides	–
Cc1cc(=O)oc2cc(O[C@@H]3O[C@H](CO)[C@@H](O[C@@H]4O[C@H](CO[C@H]5OC[C@@H](O)[C@H](O)[C@H]5O)[C@@H](O[C@@H]5O[C@H](CO[C@H]6OC[C@@H](O)[C@H](O)[C@H]6O)[C@@H](O[C@@H]6O[C@H](CO[C@H]7OC[C@@H](O)[C@H](O)[C@H]7O)[C@@H](O)[C@H](O)[C@H]6O)[C@H](O)[C@H]5O)[C@H](O)[C@H]4O)[C@H](O)[C@H]3O)ccc12 [4MU-XXXG]	–	Kinetics for the hydrolysis of 4MU-XXXG and commercially available 4MU-cellotetraose were measured
